Assay results: PubChem BioAssay (NCI)
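How tested: cells in 96-well plates exposed to compound for 48 hours at five concentrations. GI50 marks 50% less growth. TGI: total growth inhibition.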

Experiments:
Assay in all cases: growth of human tumour cells (NCI), 48 h
[1] = test system: HL-60(TB) leukemia
[2] = test system: K-562 leukemia
[3] = test system: SK-MEL-2 melanoma
[4] = test system: A498 renal
[5] = test system: UACC-62 melanoma
[6] = test system: RPMI-8226 leukemia
[7] = test system: SF-268 CNS
[8] = test system: U251 CNS
[9] = test system: SF-295 CNS
[10] = test system: DLD-1 colon
[11] = test system: UO-31 renal
[12] = test system: M19-MEL melanoma
[13] = test system: LOX IMVI melanoma
[14] = test system: MALME-3M melanoma
[15] = test system: NCI-H522 lung
[16] = test system: DMS 273 small cell lung
[17] = test system: SF-539 CNS
[18] = test system: KM12 colon
[19] = test system: DMS 114 small cell lung
[20] = test system: KM20L2 colon
[21] = test system: CAKI-1 renal
[22] = test system: OVCAR-3 ovarian
[23] = test system: HOP-92 NSCLC
[24] = test system: SR leukemia
[25] = test system: ACHN renal
[26] = test system: OVCAR-5 ovarian
[27] = test system: LXFL 529 NSCLC
[28] = test system: SNB-19 CNS
[29] = test system: A549 NSCLC
[30] = test system: M14 melanoma
[31] = test system: NCI-H460 lung
[32] = test system: COLO 205 colon
[33] = test system: HOP-62 NSCLC
[34] = test system: SK-OV-3 ovarian
[35] = test system: SW-620 colon
[36] = test system: SNB-75 CNS
[37] = test system: SN12C renal
[38] = test system: SK-MEL-28 melanoma
[39] = test system: HOP-18 NSCLC
[40] = test system: OVCAR-8 ovarian
[41] = test system: MOLT-4 leukemia
[42] = test system: NCI-H23 lung
[43] = test system: SK-MEL-5 melanoma
[44] = test system: HT29 colon
[45] = test system: CCRF-CEM leukemia
[46] = test system: 786-0 renal
[47] = test system: TK-10 renal
[48] = test system: IGROV1 ovarian
[49] = test system: HCT-15 colon
[50] = test system: HCC-2998 colon
[51] = test system: HCT-116 colon
[52] = test system: OVCAR-4 ovarian
[53] = test system: RXF 393 renal
[54] = test system: UACC-257 melanoma
[55] = test system: EKVX NSCLC
[56] = test system: NCI-H226 lung
[57] = test system: SNB-78 CNS

NC1=NS(=O)(=O)Nc2nc(-c3ccc(Cl)cc3)[nH]c21
TGI [1]: > 100 µM | TGI [2]: > 100 µM | TGI [3]: > 100 µM | TGI [4]: > 100 µM | TGI [5]: > 100 µM | TGI [6]: > 100 µM | TGI [7]: > 100 µM | TGI [8]: > 100 µM | TGI [9]: > 100 µM | TGI [10]: > 100 µM | TGI [11]: > 100 µM | TGI [12]: > 100 µM | TGI [13]: > 100 µM | TGI [14]: > 100 µM | TGI [15]: > 100 µM | TGI [16]: > 100 µM | TGI [17]: > 100 µM | TGI [18]: > 100 µM | TGI [19]: > 100 µM | TGI [20]: > 100 µM | TGI [21]: > 100 µM | TGI [22]: > 100 µM | TGI [23]: > 100 µM | TGI [24]: > 100 µM | TGI [25]: > 100 µM | TGI [26]: > 100 µM | TGI [27]: > 100 µM | TGI [28]: > 100 µM | TGI [29]: > 100 µM | TGI [30]: > 100 µM | TGI [31]: > 100 µM | TGI [32]: > 100 µM | TGI [33]: > 100 µM | TGI [34]: > 100 µM | TGI [35]: > 100 µM | TGI [36]: > 100 µM | TGI [37]: > 100 µM | TGI [38]: > 100 µM | TGI [39]: > 100 µM | TGI [40]: > 100 µM | TGI [41]: > 100 µM | TGI [42]: > 100 µM | TGI [43]: > 100 µM | TGI [44]: > 100 µM | TGI [45]: > 100 µM | TGI [46]: > 100 µM | TGI [47]: > 100 µM | TGI [48]: > 100 µM | TGI [49]: > 100 µM | TGI [50]: > 100 µM | TGI [51]: > 100 µM | TGI [52]: > 100 µM

CCOC(=O)N1Cc2ccoc2C1
TGI [1]: > 100 µM | TGI [2]: > 100 µM | TGI [3]: > 100 µM | TGI [5]: > 100 µM | TGI [6]: > 100 µM | TGI [53]: > 100 µM | TGI [7]: > 100 µM | TGI [8]: > 100 µM | TGI [9]: > 100 µM | TGI [10]: > 100 µM | TGI [11]: > 100 µM | TGI [12]: > 100 µM | TGI [13]: > 100 µM | TGI [14]: > 100 µM | TGI [15]: > 100 µM | TGI [16]: > 100 µM | TGI [17]: > 100 µM | TGI [18]: > 100 µM | TGI [19]: > 100 µM | TGI [20]: > 100 µM | TGI [22]: > 100 µM | TGI [23]: > 100 µM | TGI [24]: > 100 µM | TGI [25]: > 100 µM | TGI [26]: > 100 µM | TGI [54]: > 100 µM | TGI [27]: > 100 µM | TGI [28]: > 100 µM | TGI [29]: > 100 µM | TGI [30]: > 100 µM | TGI [31]: > 100 µM | TGI [32]: > 100 µM | TGI [33]: > 100 µM | TGI [34]: > 100 µM | TGI [35]: > 100 µM | TGI [36]: > 100 µM | TGI [37]: > 100 µM | TGI [38]: > 100 µM | TGI [39]: > 100 µM | TGI [40]: > 100 µM | TGI [41]: > 100 µM | TGI [42]: > 100 µM | TGI [43]: > 100 µM | TGI [44]: > 100 µM | TGI [55]: > 100 µM | TGI [45]: > 100 µM | TGI [46]: > 100 µM | TGI [47]: > 100 µM | TGI [56]: > 100 µM | TGI [48]: > 100 µM | TGI [49]: > 100 µM | TGI [50]: > 100 µM | TGI [51]: > 100 µM | TGI [52]: > 100 µM

NCCN.O=C([O-])C(=O)[O-].O=C([O-])C(=O)[O-].[Co+3].[K+]
GI50 [1]: > 100 µM | TGI [1]: > 100 µM | GI50 [2]: > 100 µM | TGI [2]: > 100 µM | GI50 [3]: > 100 µM | TGI [3]: > 100 µM | GI50 [4]: > 100 µM | TGI [4]: > 100 µM | GI50 [5]: > 100 µM | TGI [5]: > 100 µM | GI50 [6]: > 100 µM | TGI [6]: > 100 µM | GI50 [7]: > 100 µM | TGI [7]: > 100 µM | GI50 [8]: > 100 µM | TGI [8]: > 100 µM | GI50 [9]: > 100 µM | TGI [9]: > 100 µM | GI50 [10]: > 100 µM | TGI [10]: > 100 µM | GI50 [11]: > 100 µM | TGI [11]: > 100 µM | GI50 [12]: > 100 µM | TGI [12]: > 100 µM | GI50 [13]: > 100 µM | TGI [13]: > 100 µM | GI50 [14]: > 100 µM | TGI [14]: > 100 µM | GI50 [15]: 92.4 µM | TGI [15]: > 100 µM | GI50 [17]: > 100 µM | TGI [17]: > 100 µM | GI50 [18]: > 100 µM | TGI [18]: > 100 µM | GI50 [19]: > 100 µM | TGI [19]: > 100 µM | GI50 [20]: > 100 µM | TGI [20]: > 100 µM | GI50 [22]: > 100 µM | TGI [22]: > 100 µM | GI50 [23]: > 100 µM | TGI [23]: > 100 µM | GI50 [25]: > 100 µM | TGI [25]: > 100 µM | GI50 [26]: > 100 µM | TGI [26]: > 100 µM | GI50 [57]: > 100 µM | TGI [57]: > 100 µM | GI50 [54]: > 100 µM | TGI [54]: > 100 µM | GI50 [27]: > 100 µM | TGI [27]: > 100 µM | GI50 [28]: > 100 µM | TGI [28]: > 100 µM | GI50 [29]: > 100 µM | TGI [29]: > 100 µM | GI50 [30]: > 100 µM | TGI [30]: > 100 µM | GI50 [31]: > 100 µM | TGI [31]: > 100 µM | GI50 [32]: > 100 µM | TGI [32]: > 100 µM | GI50 [33]: > 100 µM | TGI [33]: > 100 µM | GI50 [34]: > 100 µM | TGI [34]: > 100 µM | GI50 [35]: > 100 µM | TGI [35]: > 100 µM | GI50 [36]: > 100 µM | TGI [36]: > 100 µM | GI50 [37]: > 100 µM | TGI [37]: > 100 µM | GI50 [38]: > 100 µM | TGI [38]: > 100 µM | GI50 [40]: > 100 µM | TGI [40]: > 100 µM | GI50 [41]: > 100 µM | TGI [41]: > 100 µM | GI50 [42]: > 100 µM | TGI [42]: > 100 µM | GI50 [43]: > 100 µM | TGI [43]: > 100 µM | GI50 [44]: > 100 µM | TGI [44]: > 100 µM | GI50 [55]: > 100 µM | TGI [55]: > 100 µM | GI50 [45]: > 100 µM | TGI [45]: > 100 µM | GI50 [46]: > 100 µM | TGI [46]: > 100 µM | GI50 [47]: > 100 µM | TGI [47]: > 100 µM | GI50 [48]: > 100 µM | TGI [48]: > 100 µM | GI50 [49]: > 100 µM | TGI [49]: > 100 µM | GI50 [50]: > 100 µM | TGI [50]: > 100 µM | GI50 [51]: > 100 µM | TGI [51]: > 100 µM | GI50 [52]: > 100 µM | TGI [52]: > 100 µM

COC(=O)C1Cc2c([nH]c3ccccc23)C(c2ccccc2O)N1 (centres undefined)
TGI [1]: 75.4 µM | TGI [2]: > 100 µM | TGI [3]: > 100 µM | TGI [4]: > 100 µM | TGI [5]: > 100 µM | TGI [8]: > 100 µM | TGI [9]: > 100 µM | TGI [10]: > 100 µM | TGI [11]: 97.9 µM | TGI [13]: > 100 µM | TGI [14]: > 100 µM | TGI [15]: > 100 µM | TGI [16]: > 100 µM | TGI [17]: > 100 µM | TGI [18]: > 100 µM | TGI [19]: > 100 µM | TGI [20]: > 100 µM | TGI [21]: > 100 µM | TGI [22]: > 100 µM | TGI [23]: > 100 µM | TGI [24]: > 100 µM | TGI [25]: > 100 µM | TGI [26]: > 100 µM | TGI [54]: > 100 µM | TGI [27]: > 100 µM | TGI [28]: > 100 µM | TGI [29]: > 100 µM | TGI [30]: > 100 µM | TGI [31]: 47.1 µM | TGI [32]: 93.8 µM | TGI [34]: > 100 µM | TGI [35]: > 100 µM | TGI [36]: > 100 µM | TGI [37]: > 100 µM | TGI [38]: > 100 µM | TGI [39]: > 100 µM | TGI [40]: > 100 µM | TGI [41]: > 100 µM | TGI [42]: > 100 µM | TGI [43]: > 100 µM | TGI [44]: > 100 µM | TGI [55]: > 100 µM | TGI [45]: > 100 µM | TGI [46]: > 100 µM | TGI [47]: > 100 µM | TGI [56]: > 100 µM | TGI [48]: > 100 µM | TGI [49]: > 100 µM | TGI [50]: > 100 µM | TGI [51]: > 100 µM | TGI [52]: > 100 µM
